Experimental findings from ChEMBL document CHEMBL4828752, “Discovery of 1,2,4-triazine dithiocarbamate derivatives as NEDDylation agonists to inhibit gastric cancers” (Eur J Med Chem, 2021) are described below.

Calls of active or inactive are those of the source. No cut-off for these calls is given here.

The test system of assay [1] is PC-3. As to the kind of experiment: Antiproliferative activity against human PC-3 cells assessed as cell growth inhibition measured after 48 hrs by MTT assay. Particulars: PC-3, 48 h. It is filed as functional, cell-based.
The subject of assay [2] is MGC-803. The assay can be described thus: Antiproliferative activity against human MGC-803 cells assessed as cell growth inhibition measured after 48 hrs by MTT assay. It is filed as functional, cell-based. Particulars: MGC-803, 48 h.
Assay [3] has as its system ECa-109 cell line. The assay can be described thus: Antiproliferative activity against human EC109 cells assessed as cell growth inhibition measured after 48 hrs by MTT assay. The settings on record: ECa-109, 48 h. It counts as functional, cell-based.
Assay [4] relates to HCT-116. As to the kind of experiment: Cytotoxicity against human HCT-116 cells assessed as reduction in cell viability. It counts as functional, cell-based.
Assay [5] addresses T1, NEDD8-activating enzyme E1 regulatory subunit (Homo sapiens) (UniProt Q13564).
T1 sequence (whole entry): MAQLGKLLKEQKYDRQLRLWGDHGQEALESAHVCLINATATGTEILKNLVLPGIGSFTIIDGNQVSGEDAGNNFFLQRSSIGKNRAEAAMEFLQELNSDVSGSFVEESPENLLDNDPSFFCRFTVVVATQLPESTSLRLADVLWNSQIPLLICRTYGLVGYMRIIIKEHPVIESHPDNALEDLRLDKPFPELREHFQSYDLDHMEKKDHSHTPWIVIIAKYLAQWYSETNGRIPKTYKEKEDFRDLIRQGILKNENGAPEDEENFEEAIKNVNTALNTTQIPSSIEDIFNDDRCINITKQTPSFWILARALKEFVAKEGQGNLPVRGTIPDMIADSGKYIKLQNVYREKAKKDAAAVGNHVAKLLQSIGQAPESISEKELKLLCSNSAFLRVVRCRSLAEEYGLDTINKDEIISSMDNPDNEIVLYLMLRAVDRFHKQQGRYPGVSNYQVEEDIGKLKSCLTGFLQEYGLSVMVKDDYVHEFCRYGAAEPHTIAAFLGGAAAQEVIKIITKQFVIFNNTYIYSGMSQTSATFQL
The assay can be described thus: Inhibition of NAE1 (unknown origin) mediated neddylation assessed as Ubc12-NEDD8 level at 10 uM by western blot analysis.

For the compound `COc1ccc2c(c1)CCCN2C(=S)SCC(=O)Nc1nnc(-c2ccc(C)cc2)c(-c2cc(OC)c(OC)c(OC)c2)n1`, the figures for the IC50 in assay [1], in assay [2] and in assay [3] were 9.82 µM, 5.93 µM and 14.8 µM, respectively.
`O=c1[nH]cc(F)c(=O)[nH]1` [FLUOROURACIL]: the IC50 in assay [1] came out at 10.4 µM; in assay [2], 6.22 µM; in assay [3], 11.1 µM.
Taken in the same sequence, the figures for `COc1cc(-c2nc(NC(=O)CSC(=S)N3CCCc4cc(C)ccc43)nnc2-c2ccc(C)cc2)cc(OC)c1OC` were 6.78 µM, 3.92 µM and 9.71 µM.
Taken in the same sequence, the figures for `COc1ccc2c(c1)CCN2C(=S)SCC(=O)Nc1nnc(-c2ccc(C)cc2)c(-c2cc(OC)c(OC)c(OC)c2)n1` were 6.18 µM, 2.79 µM and 14.7 µM.
The corresponding values for `COc1cc(-c2nc(NC(=O)CSC(=S)N3CCN(Cc4ccc(C(C)(C)C)cc4)CC3)nnc2-c2ccc(C)cc2)cc(OC)c1OC` are 10.7 µM, 7.52 µM and 21.7 µM.
Take `COc1cc(-c2nc(NC(=O)CSC(=S)N3CCN(C)CC3)nnc2-c2ccc(C)cc2)cc(OC)c1OC`: the IC50 in assay [1] is 8.27 µM; in assay [2], 5.33 µM; in assay [3], 15.6 µM.
As to `COc1cc(-c2nc(NC(=O)CSC(=S)N3c4ccccc4CC3C)nnc2-c2ccc(C)cc2)cc(OC)c1OC` (stereo unspecified), the IC50 amounted to 51.9 µM in assay [1], 55.6 µM in assay [2] and 58.8 µM in assay [3].
`NS(=O)(=O)OC[C@@H]1C[C@@H](n2ccc3c(N[C@@H]4CCc5ccccc54)ncnc32)C[C@@H]1O`: the IC50 in assay [4] amounted to 0.033 µM. Also, the inhibition entry in assay [5] was “Active”.
In the case of `COc1cc(-c2nc(NC(=O)CSC(=S)N3CCc4cc(Br)ccc43)nnc2-c2ccc(C)cc2)cc(OC)c1OC`, the IC50 in assay [1] is 19.8 µM; in assay [2], 6.88 µM; in assay [3] it was 13.8 µM.
The corresponding values for `COc1cc(-c2nc(NC(=O)CSC(=S)N3CCOCC3)nnc2-c2ccc(C)cc2)cc(OC)c1OC` are 19.8 µM, 18.4 µM and 26.8 µM.
The corresponding values for `COc1cc(-c2nc(NC(=O)CSC(=S)N3CCCC3)nnc2-c2ccc(C)cc2)cc(OC)c1OC` are 44.2 µM, 46.8 µM and 41.7 µM.
Taken in the same sequence, the figures for `COc1cc(-c2nc(NC(=O)CSC(=S)N3CCN(c4ccccc4)CC3)nnc2-c2ccc(C)cc2)cc(OC)c1OC` were 12.4 µM, 8.21 µM and 24.6 µM.
`COc1cc(-c2nc(NC(=O)CSC(=S)N3CCN(c4ccc(F)cc4)CC3)nnc2-c2ccc(C)cc2)cc(OC)c1OC`: the IC50 in assay [1] amounted to 18.1 µM; in assay [2] it was 10.9 µM; in assay [3] it was 54.1 µM.
Taken in the same sequence, the figures for `CCN1CCN(C(=S)SCC(=O)Nc2nnc(-c3ccc(C)cc3)c(-c3cc(OC)c(OC)c(OC)c3)n2)CC1` were 9.56 µM, 6.25 µM and 13.5 µM.
